US8507506B2, “Theophylline derivative inhibits osteoporosis” (Kaohsiung Medical University, priority 2011, dated 2013)

Assays:
Format in all cases: cell-based
[1] = test system: IκBα in cytoplasm of RAW264.7 cells; assay: Western blot, IκBα phosphorylation and hydrolysis induced by RANKL; conditions: KMUP-1 in advance 24 hours, RANKL 30 minutes, FIG. 8(A)
Protocol: IκBα which originally binds with NF-κB to inhibit its activity in cytoplasm is stimulated by RANKL to be phosphorylized and be hydrolyzed after separating from NF-κB. Then, the free NF-κB transfers into a cell nucleus to play a role as a transcription factor. According to the experimental result, compared with the control group, in the group induced by RANKL for 30 minutes, the IκBα in the cytoplasm is obviously phosphorylized and hydrolyzed. […] According to the result, KMUP-1 can inhibit NF-κB activation induced by RANKL. Nuclear proteins were extracted according to the instructions of NE-PER kit. 2.5×10^6 cells were plated per well in 24-well plates. […] Subsequently, the cells were added by 5.5 μ[…] and shaken for 5 seconds and then put on ice for 1 minute. After that, the cells were shaken again for 5 seconds and centrifuged (10,000 rpm, 4° C., 5 minutes). Cytoplasm and Nuclei could be separated by this process, and the supernatant was cytoplasmic proteins, and the pallet was nuclei. The supernatant was stored in an eppendorf in -80° C. b) Extraction of Nuclear Proteins The nuclear pallet was added by 500 μl PBS and centrifuged (10,000 rpm, 4° C., 5 minutes), and the supernatant was discarded. The pallet could be washed by this process and prevented contamination. […]

[2] = test system: ERK phosphorylation in RAW264.7 cells; assay: Western blot, phosphorylation of ERK induced by RANKL; conditions: 7.5 μM and 10 μM, RANKL 15 minutes, FIG. 9
Protocol: MAP kinases including ERK, JNK and p38 are stimulated by RANKL to be phosphorylized and further influence the down-stream key transcription factors which induce the differentiation of osteoclast-like cells such as c-Fos, NFATc1, etc. Before estimating the drug effect, 10 ng/ml RANKL are used to induce the phosphorylation of ERK, JNK and p38 at different time points. […] It is shown that KMUP-1 can reduce the activation of MAP kinases induced by RANKL. […] The proteins were collected by scraping and were centrifuged (13,000 rpm, 4° C., 30 minutes). The supernatant was stored in an eppendorf in −80° C. • c) Concentrations of the proteins were examined by Bio-Red DC Protein Assay. After knowing the concentrations, the proteins were diluted to specific concentrations by adding ddH2O. One forth volume of the diluted proteins of sample buffer was added into the diluted proteins and was put in boiled water for 5 min and then was chilled on ice for 5 minutes. After short time centrifugation, the diluted proteins could be injected into wells of a gel. The gel was run at 100 V for 10 minutes until the proteins were driven to the intersection between a loading gel and a running gel. Then, the voltage was swopped to 200 V for 40 minutes. • d) A PVDF membrane was immersed in Methanol for 2 minutes. After two washes in ddH2O, the membrane was immersed in transfer buffer for 15 minutes. […]

[3] = test system: MMP-2 protein in RAW264.7 cells; assay: Western blot, amount of MMP-2 protein induced by RANKL; conditions: RANKL 24 hours, FIG. 18
Protocol: (§1) KMUP-1 influences there major up-stream signal transduction pathways which are related to RANK/RANKL. Western blot is used to estimate the amount of matrix metalloproteinase (MMP)-2 and MMP-9 which are related to the dissolution of osteoclast-like cells, and the enzyme activity of MMP-2 and MMP-9 are estimated via Gelatin Zymography. […] The proteins were collected by scraping and were centrifuged (13,000 rpm, 4° C., 30 minutes). The supernatant was stored in an eppendorf in −80° C. • c) Concentrations of the proteins were examined by Bio-Red DC Protein Assay. After knowing the concentrations, the proteins were diluted to specific concentrations by adding ddH2O. One forth volume of the diluted proteins of sample buffer was added into the diluted proteins and was put in boiled water for 5 min and then was chilled on ice for 5 minutes. After short time centrifugation, the diluted proteins could be injected into wells of a gel. The gel was run at 100 V for 10 minutes until the proteins were driven to the intersection between a loading gel and a running gel. Then, the voltage was swopped to 200 V for 40 minutes. • d) A PVDF membrane was immersed in Methanol for 2 minutes. After two washes in ddH2O, the membrane was immersed in transfer buffer for 15 minutes. A SDS-PAGE was put on the membrane, and wet paper was flanked them. […]

[4] = test system: MMP-9 protein in RAW264.7 cells; assay: Western blot, amount of MMP-9 protein induced by RANKL; conditions: RANKL 24 hours, FIG. 19
Protocol: as §1

Cn1c(=O)c2c(ncn2CCN2CCN(c3ccccc3Cl)CC2)n(C)c1=O [KMUP-1, 7-[2-[4-(2-Chlorophenyl)piperazin-1-yl]ethyl] theophylline]
phosphorylation and hydrolysis of IκBα in cytoplasm induced by RANKL [1]: can inhibit the effect of RANKL
phosphorylation of ERK induced by RANKL [2]: can efficiently inhibit the phosphorylation of ERK, JNK and p38 induced by RANKL
amount of MMP-2 protein induced by RANKL [3]: can efficiently inhibit the amount of MMP-2 and MMP-9 proteins
amount of MMP-9 protein induced by RANKL [4]: can efficiently inhibit the amount of MMP-2 and MMP-9 proteins
